From US20090311295A1, “PARTICLES WITH HIGH UNIFORM LOADING OF NANOPARTICLES AND METHODS OF PREPARATION THEREOF” (priority 2006, published 2009)

How the values were obtained:
[1] = X-ray diffraction (XRD) crystallinity; format: physicochemical; conditions: crystalline area divided by total scan area
Description: X-ray diffraction (XRD) was carried out on the raw materials of PS, PMMA and brilliant blue G. Crystallinity of these materials was calculated by dividing the crystalline area (obtained by subtracting amorphous region) by the total scan area. […] XRD was then run on the melt mixtures of brilliant blue G with PS and PMMA.

[2] = Solubility of raw materials and polymer melt mixtures; conditions: for MeCl2 Solubility: methylene chloride, Table III; for solubility in organics: organic solvents

Molecule | XRD % Crystallinity [1] [%] | MeCl2 Solubility [2] | solubility in organics [2] | water solubility [2]
CCOc1ccc(Nc2ccc(/C(=C3C=C/C(=[N+](/CC)Cc4cccc(S(=O)(=O)[O-])c4)C=C/3C)c3ccc(N(CC)Cc4cccc(S(=O)(=O)[O-])c4)cc3C)cc2)cc1.[Na+] [Brillian blue G, Brilliant blue G] | 22.3 |  |  | 
CC1=C(/C=C/C(C)=C/C=C/C(C)=C/C=C/C=C(C)/C=C/C=C(C)/C=C/C2=C(C)CCCC2(C)C)C(C)(C)CCC1 [beta-Carotene, β-carotene] |  | + | slightly soluble in some organics | nearly water insoluble
[Cu+2].c1ccc2c(c1)-c1nc-2nc2[n-]c(nc3nc(nc4[n-]c(n1)c1ccccc41)-c1ccccc1-3)c1ccccc21 [Copper(II) phthalocyanine] | 67.1 | − | insoluble in most organics | water insoluble
O=C1/C(=C2\Nc3ccc(S(=O)(=O)[O-])cc3C2=O)Nc2ccc(S(=O)(=O)[O-])cc21.[Na+].[Na+] [FD&C blue #2] | 36.4 | − | insoluble in most organics | very water soluble

The next lines start with the values.

XRD % Crystallinity [1] [%] | MeCl2 Solubility [2] | solubility in organics [2] | water solubility [2] | Molecule
19.1 | − | insoluble in most organics | water soluble | Chlorophyll
 | − | insoluble in most organics | very water soluble | CCN(Cc1cccc(S(=O)(=O)[O-])c1)c1ccc(C(=C2C=CC(=[N+](CC)Cc3cccc(S(=O)(=O)[O-])c3)C=C2)c2ccccc2S(=O)(=O)[O-])cc1.[Na+].[Na+] [FD&C blue #1]
24.8 | − | insoluble in most organics | very water soluble | CC1(C)C(/C=C/C=C/C=C/C=C2\N(CCCCS(=O)(=O)O)c3ccc4ccccc4c3C2(C)C)=[N+](CCCCS(=O)(=O)[O-])c2ccc3ccccc3c21 [Indocyanine green]
